Source: PubChem BioAssay AID1982 (Sanford-Burnham Center for Chemical Genomics, 2009)
Active and inactive are the calls of the source. No rule for the calls is given here.

Experiments:
Test in all cases: kinase panel binding selectivity, selectivity assay, biochemical, KINOMEscan (AID 1982)
ABL2 = conditions: KINOMEscan 353-kinase binding panel, qPCR, at 10 µM, active compounds read low
ACVR1 = conditions: KINOMEscan 353-kinase binding panel, qPCR, at 10 µM, active compounds read low
ADCK3 = conditions: KINOMEscan 353-kinase binding panel, qPCR, at 10 µM, active compounds read low
[1] = molecular target: Activated CDC42 kinase 1 (Homo sapiens) (UniProt Q07912); conditions: KINOMEscan 353-kinase binding panel, qPCR; TNK2; at 10 µM; active compounds read low
BMPR1A = conditions: KINOMEscan 353-kinase binding panel, qPCR, at 10 µM, active compounds read low
BMPR2 = conditions: KINOMEscan 353-kinase binding panel, qPCR, at 10 µM, active compounds read low
[2] = molecular target: Calcium/calmodulin-dependent protein kinase type 1D (Homo sapiens) (UniProt Q8IU85); conditions: KINOMEscan 353-kinase binding panel, qPCR; CAMK1D; at 10 µM; active compounds read low
[3] = molecular target: Casein kinase I isoform gamma-3 (Homo sapiens) (UniProt Q9Y6M4); conditions: KINOMEscan 353-kinase binding panel, qPCR; CSNK1G3; at 10 µM; active compounds read low
DAPK2 = conditions: KINOMEscan 353-kinase binding panel, qPCR, at 10 µM, active compounds read low
EPHA7 = conditions: KINOMEscan 353-kinase binding panel, qPCR, at 10 µM, active compounds read low
MAP3K3 = conditions: KINOMEscan 353-kinase binding panel, qPCR, at 10 µM, active compounds read low
MAP4K1 = conditions: KINOMEscan 353-kinase binding panel, qPCR, at 10 µM, active compounds read low
MARK1 = conditions: KINOMEscan 353-kinase binding panel, qPCR, at 10 µM, active compounds read low
MYLK2 = conditions: KINOMEscan 353-kinase binding panel, qPCR, at 10 µM, active compounds read low
MYO3A = conditions: KINOMEscan 353-kinase binding panel, qPCR, at 10 µM, active compounds read low
[4] = molecular target: Mast/stem cell growth factor receptor Kit (Homo sapiens) (UniProt P10721); conditions: KINOMEscan 353-kinase binding panel, qPCR, at 10 µM, active compounds read low
PCTK1 = conditions: KINOMEscan 353-kinase binding panel, qPCR, at 10 µM, active compounds read low
PCTK2 = conditions: KINOMEscan 353-kinase binding panel, qPCR, at 10 µM, active compounds read low
PHKG1 = conditions: KINOMEscan 353-kinase binding panel, qPCR, at 10 µM, active compounds read low
PKN1 = conditions: KINOMEscan 353-kinase binding panel, qPCR, at 10 µM, active compounds read low
[5] = molecular target: Phosphorylase b kinase gamma catalytic chain, liver/testis isoform (Homo sapiens) (UniProt P15735); conditions: KINOMEscan 353-kinase binding panel, qPCR; PHKG2; at 10 µM; active compounds read low
[6] = molecular target: Protein kinase C theta type (Homo sapiens) (UniProt Q04759); conditions: KINOMEscan 353-kinase binding panel, qPCR; PRKCQ; at 10 µM; active compounds read low
[7] = molecular target: RAC-alpha serine/threonine-protein kinase (Homo sapiens) (UniProt P31749); conditions: KINOMEscan 353-kinase binding panel, qPCR; AKT1; at 10 µM; active compounds read low
[8] = molecular target: RAC-gamma serine/threonine-protein kinase (Homo sapiens) (UniProt Q9Y243); conditions: KINOMEscan 353-kinase binding panel, qPCR; AKT3; at 10 µM; active compounds read low
[9] = molecular target: Receptor tyrosine-protein kinase erbB-2 (Homo sapiens) (UniProt P04626); conditions: KINOMEscan 353-kinase binding panel, qPCR; ERBB2; at 10 µM; active compounds read low
[10] = molecular target: Serine/threonine-protein kinase TAO1 (Homo sapiens) (UniProt Q7L7X3); conditions: KINOMEscan 353-kinase binding panel, qPCR; TAOK1; at 10 µM; active compounds read low
SgK085 = conditions: KINOMEscan 353-kinase binding panel, qPCR, at 10 µM, active compounds read low
TEC = conditions: KINOMEscan 353-kinase binding panel, qPCR, at 10 µM, active compounds read low
TIE1 = conditions: KINOMEscan 353-kinase binding panel, qPCR, at 10 µM, active compounds read low
TLK2 = conditions: KINOMEscan 353-kinase binding panel, qPCR, at 10 µM, active compounds read low
TTK = conditions: KINOMEscan 353-kinase binding panel, qPCR, at 10 µM, active compounds read low
[11] = molecular target: Tyrosine-protein kinase ABL1 (Homo sapiens) (UniProt P00519); conditions: KINOMEscan 353-kinase binding panel, qPCR, at 10 µM, active compounds read low
[12] = molecular target: Tyrosine-protein kinase HCK (Homo sapiens) (UniProt P08631); conditions: KINOMEscan 353-kinase binding panel, qPCR, at 10 µM, active compounds read low
[13] = molecular target: Tyrosine-protein kinase SYK (Homo sapiens) (UniProt P43405); conditions: KINOMEscan 353-kinase binding panel, qPCR, at 10 µM, active compounds read low
[14] = molecular target: Tyrosine-protein kinase Srms (Homo sapiens) (UniProt Q9H3Y6); conditions: KINOMEscan 353-kinase binding panel, qPCR, at 10 µM, active compounds read low

Measured: percent of control binding

Sequence of Mast/stem cell growth factor receptor Kit (Homo sapiens) (P10721 whole entry, looked up): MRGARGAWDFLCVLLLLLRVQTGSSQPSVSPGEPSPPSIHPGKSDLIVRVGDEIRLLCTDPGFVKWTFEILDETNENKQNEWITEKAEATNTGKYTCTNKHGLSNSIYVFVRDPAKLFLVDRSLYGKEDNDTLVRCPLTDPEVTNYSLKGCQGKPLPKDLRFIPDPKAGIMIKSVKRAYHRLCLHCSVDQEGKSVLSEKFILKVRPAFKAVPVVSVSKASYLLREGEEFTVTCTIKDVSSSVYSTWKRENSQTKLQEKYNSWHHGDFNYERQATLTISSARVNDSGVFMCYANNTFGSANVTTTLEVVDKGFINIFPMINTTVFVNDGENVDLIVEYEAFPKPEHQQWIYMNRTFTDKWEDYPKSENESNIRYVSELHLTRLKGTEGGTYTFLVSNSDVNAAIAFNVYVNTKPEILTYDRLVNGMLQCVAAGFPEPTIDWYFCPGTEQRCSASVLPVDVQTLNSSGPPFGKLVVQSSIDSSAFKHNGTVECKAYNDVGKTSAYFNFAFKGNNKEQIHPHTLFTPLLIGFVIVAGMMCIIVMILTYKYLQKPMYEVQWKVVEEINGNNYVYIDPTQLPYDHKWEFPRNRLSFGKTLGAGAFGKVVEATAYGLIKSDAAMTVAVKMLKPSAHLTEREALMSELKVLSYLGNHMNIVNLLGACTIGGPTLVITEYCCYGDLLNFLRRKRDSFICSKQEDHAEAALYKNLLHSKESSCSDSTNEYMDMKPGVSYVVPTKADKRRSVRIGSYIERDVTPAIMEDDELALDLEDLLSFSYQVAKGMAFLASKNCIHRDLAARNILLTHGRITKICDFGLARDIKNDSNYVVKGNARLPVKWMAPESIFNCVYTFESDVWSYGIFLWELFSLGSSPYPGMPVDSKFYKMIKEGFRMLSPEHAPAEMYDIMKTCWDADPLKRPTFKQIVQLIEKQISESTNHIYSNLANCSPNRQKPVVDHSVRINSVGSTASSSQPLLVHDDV
Sequence of Tyrosine-protein kinase ABL1 (Homo sapiens) (P00519 whole entry, looked up): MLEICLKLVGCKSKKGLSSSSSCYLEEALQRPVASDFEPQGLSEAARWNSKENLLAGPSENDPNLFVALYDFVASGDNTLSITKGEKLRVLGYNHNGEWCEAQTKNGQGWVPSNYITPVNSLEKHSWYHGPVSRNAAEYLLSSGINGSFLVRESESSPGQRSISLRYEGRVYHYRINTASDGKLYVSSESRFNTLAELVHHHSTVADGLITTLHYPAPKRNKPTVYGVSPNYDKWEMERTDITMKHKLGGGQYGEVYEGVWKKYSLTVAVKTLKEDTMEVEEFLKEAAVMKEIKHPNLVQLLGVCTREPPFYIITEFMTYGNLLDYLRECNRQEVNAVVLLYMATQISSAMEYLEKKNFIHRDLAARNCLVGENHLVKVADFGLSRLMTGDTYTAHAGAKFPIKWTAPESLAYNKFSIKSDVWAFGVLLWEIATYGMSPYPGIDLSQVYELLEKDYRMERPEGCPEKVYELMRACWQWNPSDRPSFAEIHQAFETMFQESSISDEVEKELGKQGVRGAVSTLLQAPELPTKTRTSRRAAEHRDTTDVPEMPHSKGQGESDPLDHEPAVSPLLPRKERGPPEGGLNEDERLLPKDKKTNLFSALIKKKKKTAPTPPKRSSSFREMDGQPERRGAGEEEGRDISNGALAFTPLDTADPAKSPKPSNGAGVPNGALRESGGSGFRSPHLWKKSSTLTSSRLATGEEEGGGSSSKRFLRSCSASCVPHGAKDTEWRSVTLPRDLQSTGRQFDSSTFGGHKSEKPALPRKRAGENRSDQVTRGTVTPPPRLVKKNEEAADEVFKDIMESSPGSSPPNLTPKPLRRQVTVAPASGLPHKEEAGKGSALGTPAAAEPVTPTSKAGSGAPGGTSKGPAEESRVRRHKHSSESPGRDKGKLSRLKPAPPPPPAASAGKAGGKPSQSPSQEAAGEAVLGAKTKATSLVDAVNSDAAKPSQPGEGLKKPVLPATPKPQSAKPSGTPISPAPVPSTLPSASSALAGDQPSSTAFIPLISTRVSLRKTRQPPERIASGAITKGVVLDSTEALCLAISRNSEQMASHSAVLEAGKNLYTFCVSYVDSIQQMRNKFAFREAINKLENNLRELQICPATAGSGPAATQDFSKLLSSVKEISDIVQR
Sequence of Protein kinase C theta type (Homo sapiens) (Q04759 whole entry, looked up): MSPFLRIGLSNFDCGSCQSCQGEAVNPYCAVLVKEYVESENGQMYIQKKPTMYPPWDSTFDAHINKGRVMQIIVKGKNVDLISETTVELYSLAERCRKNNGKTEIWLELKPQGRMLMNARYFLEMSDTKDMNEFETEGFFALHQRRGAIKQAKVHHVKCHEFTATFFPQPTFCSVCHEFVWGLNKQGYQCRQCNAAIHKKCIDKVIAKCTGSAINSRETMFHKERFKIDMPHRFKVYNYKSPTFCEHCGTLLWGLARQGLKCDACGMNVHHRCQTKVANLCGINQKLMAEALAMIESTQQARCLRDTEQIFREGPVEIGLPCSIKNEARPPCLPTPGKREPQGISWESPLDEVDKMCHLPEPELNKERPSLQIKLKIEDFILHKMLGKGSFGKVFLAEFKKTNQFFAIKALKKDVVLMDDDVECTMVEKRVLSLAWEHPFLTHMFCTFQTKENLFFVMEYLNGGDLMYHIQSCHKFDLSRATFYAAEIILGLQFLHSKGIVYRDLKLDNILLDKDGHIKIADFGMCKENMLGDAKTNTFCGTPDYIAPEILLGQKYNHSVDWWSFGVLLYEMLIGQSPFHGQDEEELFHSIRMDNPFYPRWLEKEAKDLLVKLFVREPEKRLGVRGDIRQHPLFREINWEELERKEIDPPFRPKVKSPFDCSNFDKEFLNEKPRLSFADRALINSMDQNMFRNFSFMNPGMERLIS
Sequence of Casein kinase I isoform gamma-3 (Homo sapiens) (Q9Y6M4 whole entry, looked up, canonical isoform): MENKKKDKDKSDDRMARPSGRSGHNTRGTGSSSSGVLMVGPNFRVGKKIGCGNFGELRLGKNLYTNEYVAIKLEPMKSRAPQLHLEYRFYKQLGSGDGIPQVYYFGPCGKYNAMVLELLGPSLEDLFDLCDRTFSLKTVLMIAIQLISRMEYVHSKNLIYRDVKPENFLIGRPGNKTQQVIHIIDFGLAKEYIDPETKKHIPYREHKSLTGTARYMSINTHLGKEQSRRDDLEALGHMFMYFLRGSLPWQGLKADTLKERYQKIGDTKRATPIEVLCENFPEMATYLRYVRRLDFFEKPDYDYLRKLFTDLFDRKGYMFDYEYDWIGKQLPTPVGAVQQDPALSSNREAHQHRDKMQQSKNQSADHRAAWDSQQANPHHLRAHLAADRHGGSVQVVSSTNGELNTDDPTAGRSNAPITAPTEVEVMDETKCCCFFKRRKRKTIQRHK
Sequence of Activated CDC42 kinase 1 (Homo sapiens) (Q07912 whole entry, looked up): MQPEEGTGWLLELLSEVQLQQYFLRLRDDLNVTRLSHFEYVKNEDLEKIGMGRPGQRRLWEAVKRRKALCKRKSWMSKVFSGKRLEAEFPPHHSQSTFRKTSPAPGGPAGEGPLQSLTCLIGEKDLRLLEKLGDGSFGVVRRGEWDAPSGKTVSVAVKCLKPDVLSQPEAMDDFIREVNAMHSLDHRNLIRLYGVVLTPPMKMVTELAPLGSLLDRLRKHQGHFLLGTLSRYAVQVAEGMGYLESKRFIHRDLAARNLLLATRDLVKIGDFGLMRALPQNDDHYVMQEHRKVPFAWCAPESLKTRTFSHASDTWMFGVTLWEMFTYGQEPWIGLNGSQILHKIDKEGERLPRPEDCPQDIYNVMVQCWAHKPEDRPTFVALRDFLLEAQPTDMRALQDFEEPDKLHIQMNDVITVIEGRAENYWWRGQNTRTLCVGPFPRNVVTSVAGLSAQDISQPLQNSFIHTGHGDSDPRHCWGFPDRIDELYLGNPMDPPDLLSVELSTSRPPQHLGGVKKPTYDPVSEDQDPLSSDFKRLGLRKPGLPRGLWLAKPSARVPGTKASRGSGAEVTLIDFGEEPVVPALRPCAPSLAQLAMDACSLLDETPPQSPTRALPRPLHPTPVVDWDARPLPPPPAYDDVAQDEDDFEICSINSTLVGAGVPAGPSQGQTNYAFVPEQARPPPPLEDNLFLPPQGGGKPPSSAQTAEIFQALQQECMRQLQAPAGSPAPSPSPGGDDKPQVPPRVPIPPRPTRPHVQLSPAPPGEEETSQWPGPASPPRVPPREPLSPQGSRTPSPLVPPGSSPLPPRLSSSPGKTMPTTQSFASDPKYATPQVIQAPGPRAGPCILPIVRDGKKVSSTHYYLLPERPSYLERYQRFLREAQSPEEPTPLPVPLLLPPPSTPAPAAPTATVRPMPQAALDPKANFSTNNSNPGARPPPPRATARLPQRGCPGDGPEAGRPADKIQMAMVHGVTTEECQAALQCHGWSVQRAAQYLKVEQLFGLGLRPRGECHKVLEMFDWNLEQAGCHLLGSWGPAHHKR
Sequence of Phosphorylase b kinase gamma catalytic chain, liver/testis isoform (Homo sapiens) (P15735 whole entry, looked up, canonical isoform): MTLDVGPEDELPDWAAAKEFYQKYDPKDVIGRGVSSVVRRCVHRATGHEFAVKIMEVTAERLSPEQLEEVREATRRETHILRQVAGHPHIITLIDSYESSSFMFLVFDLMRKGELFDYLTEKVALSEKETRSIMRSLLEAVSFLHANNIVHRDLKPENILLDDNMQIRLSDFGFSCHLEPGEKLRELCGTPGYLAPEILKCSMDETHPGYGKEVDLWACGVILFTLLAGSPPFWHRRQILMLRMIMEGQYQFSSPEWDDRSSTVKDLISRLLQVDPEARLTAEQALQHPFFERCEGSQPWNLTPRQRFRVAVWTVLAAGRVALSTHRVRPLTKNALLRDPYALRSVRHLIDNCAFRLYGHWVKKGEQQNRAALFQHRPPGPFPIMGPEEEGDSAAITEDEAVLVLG

Cc1cc2nc(NCCCO)n(CC(=O)c3cc(C(C)(C)C)c(O)c(C(C)(C)C)c3)c2cc1C
inactive: ABL2 85% | ACVR1 89% | ADCK3 72% | [1] 98% | BMPR1A 97% | BMPR2 64% | [2] 100% | [3] 100% | DAPK2 100% | EPHA7 87% | MAP3K3 82% | MAP4K1 100% | MARK1 100% | MYLK2 97% | MYO3A 89% | [4] 92% | [4]; KIT(D816V) 90% | [4]; KIT(V559D) 95% | [4]; KIT(V559D,T670I) 94% | [4]; KIT(V559D,V654A) 92% | PCTK1 84% | PCTK2 99% | PHKG1 100% | PKN1 100% | [5] 100% | [6] 100% | [7] 100% | [8] 100% | [9] 100% | [10] 90% | SgK085 99% | TEC 98% | TIE1 100% | TLK2 100% | TTK 100% | [11] 100% | [11]; ABL1(E255K) 94% | [11]; ABL1(F317I) 100% | [11]; ABL1(F317L) 92% | [11]; ABL1(H396P) 98% | [11]; ABL1(M351T) 100% | [11]; ABL1(Q252H) 100% | [11]; ABL1(T315I) 86% | [11]; ABL1(Y253F) 100% | [12] 93% | [13] 100% | [14] 100%
